# In US20250082759A1, “COMPOSITIONS COMPRISING THERAPEUTIC NUCLEIC ACID AND TARGETED SAPONIN FOR THE TREATMENT OF MUSCLE-WASTING DISORDERS” (SAPREME TECHNOLOGIES B.V., priority 2021, published 2025):
# Oligonucleotides are written 5' to 3', each unit as a sugar letter and its base; * is a phosphorothioate linkage, no mark a phosphodiester; rarer units and linkages stand in square brackets, end groups in braces. Plain capitals give the bases only. m = 2'-O-methyl
# What was measured:
# [1] = test system: dystrophin exon 51; assay: Exon 51 skip analysis in differentiated human myotubes from a non-DMD (healthy) donor (KM155); format: cell-based; conditions: for % exon skipping: 72 hrs
# Procedure: Immortalized human myoblasts from non-DMD donors (KM155) and myoblasts from a DMD-affected donor (DM8036) were cultured in Skeletal Muscle Cell Growth Medium (PromoCell, Germany) with supplementary pack according to manufacturer's instructions, further supplemented with 15% fetal bovine serum (Gibco, United Kingdom), and 0.5% gentamicin (Sigma-Aldrich, USA). For differentiation, cells were seeded on a 0.5% gelatine-coated surface, and at ˜70-80% confluence, the proliferation medium was replaced by DMEM (Gibco) supplemented with 2% FBS (Gibco), 2% GlutaMAX, and 1% glucose (Sigma-Aldrich) and 0.5% gentamycin. Treatments were started after at least 3 days up to a maximum of 5 days of differentiation (based on the presence of differentiated myotubes).
# RNA was isolated with the TRIsure Isolation Reagent (Bioline) and chloroform extraction; isopropanol precipitation of RNA from the aqueous phase was performed as known to someone skilled in the art. For cDNA synthesis, 1000 ng of total RNA was used and diluted in an appropriate amount of RNase-free water to yield 8 μl RNA dilution. The priming premixed contained 1 μl dNTP mix (10 mM each) and 1 μl specific reverse primer (for KM155, h53R 5′-[…]-3′ [SEQ ID NO: 5]; for DM8036, h55R 5′-[…]-3′ [SEQ ID NO: 6]). This mixture was heated for 5 min at 70° C., then chilled on ice for at least 1 min. A reaction mixture was prepared containing 0.5 μl rRNasin (Promega), 4.0 μl RT buffer, 1.0 μl Tetro RT (Bioline), and 4.5 μl RNase-free water, and was added to the chilled mixture to yield a total volume of 20 μl per reaction. The RT-PCR was run for 60 min at 42° C., then 5 min at 85° C., and chilled on ice. For skip analysis, a nested PCR approach was followed. To this end, in the first PCR, 3 μl cDNA were added to a mix of 2.5 μl 10× SuperTaq PCR buffer, 0.5 μl dNTP mix (10 mM each), 0.125 μl Taq DNA polymerase TAQ-RO (5 U/μl; Roche) 16.875 μl RNase-free water and 1 μl (10 pmol/μl) of each primer flanking the targeted exons were used: for KM155, h48F 5′-[…]-3′ [SEQ ID NO: 7] and h53R 5′-[…]-3′ [SEQ NO: ID 5]; for DM8036, h47F2 5′-[…]-3′ [SEQ ID NO: 8] and h54R 5′-[…]-3′ [SEQ ID NO: 9]. These samples were subjected to a PCR run of 5 min at 94° C., then 25 cycles with 40 sec at 94° C., 40 sec at 60° C., 180 sec at 72° C., after which for 7 min at 72° C. For the second PCR, 1.5 μl PCR1 sample were added to a mix of 5 μl 10× SuperTaq PCR buffer, 1 μl dNTP mix (10 mM each), 0.25 μl Taq DNA polymerase TAQ-RO (5 U/μl; Roche), 38.25 μl RNase-free water and 2 μl (10 pmol/μl) of each primer flanking the targeted exons were used: for KM155, h49F 5′-[…]-3′ [SEQ ID NO: 10] and h52R2 5′-[…]-3′ [SEQ ID NO: 11]; for DM8036, h47F 5′-[…]-3′ [SEQ ID NO: 12] and h53R 5′-[…]-3′ [SEQ ID NO: 13]. These samples were subjected to a PCR run of 5 min at 94° C., then 32 cycles with 40 sec at 94° C., 40 sec at 60° C., 60 sec at 72° C., after which for 7 min at 72° C. Exon skipping levels were quantified with the Femto Pulse System using the Ultra Sensitivity NGS Kit (Agilent), according to the manufacturer's instructions. Alternatively, the specific PCR fragments were analyzed using Bioanalyzer 2100 with DNA1000 chip (lab-on-a-chip; Agilent), or separated on 2% agarose gels run at 120 V. Gels were imaged and band intensities were quantified using ImageJ. The expected non-skipped product has a size of 408 bp (KM155) and 475 bp (DM8036), and the skip product of 175 bp (KM155) or 242 bp (DM8036), respectively.
# Immortalized human myoblasts from non-DMD donors (KM155) were cultured as described above in the Methods (as performed in Examples 1-5).
# RNA was isolated with the TRIsure Isolation Reagent (Bioline) and chloroform extraction; isopropanol precipitation of RNA from the aqueous phase was performed as known to someone skilled in the art. […]
# [2] = test system: dystrophin exon 23; assay: Exon 23 skip analysis in differentiated murine C2C12 myotubes; format: cell-based, mouse
# Procedure: Murine myoblast cell line C2C12 was maintained in 10% FBS DMEM medium+Pen/Strep and plated at 240,000 cells per well (cpw) in 24-well plates or 40,000 cpw in 96-well plates (wp) in maintenance medium (10% FBS in DMEM medium+Pen/Strep) and incubated at 37° C. with 5% CO2. Twenty-four hours after seeding, cells were switched to differentiation media (2% horse serum in DMEM) and incubated for 3 days before refreshing the medium. After another 24 hours, medium was refreshed again and compounds were added and incubated for 48 hours. Differentiation medium was then refreshed (without compounds), and cells were incubated for another 24 hours. At 72 hours total post treatment, cells in the 24-wp were harvested for exon skip analysis and the cell viability was assessed on the 96-wp.
# For analysis of skip from murine cell lines, cells were harvested and RNA was isolated using 0.5 ml TRIzol™ Reagent (Thermo Scientific) per sample, according to the manufacturer's instruction. For analysis of tissue, 30-50 mg frozen tissue was first cut into smaller pieces and mRNA was isolated using TRIzol™ Reagent (Thermo Scientific) and a TissueLyser LT (Qiagen) according to the manufacturer's instruction. For cDNA synthesis per sample, to 0.5 μg RNA in 5.0 μl, 10.0 μl ddH2O, 4 μl 5× iScript™ Reaction Mix and 1.0 μl iScript™ Reverse Transcriptase (BioRad) were added to yield a total volume of 20.0 μl per reaction. The RT-PCR was run for 5 min at 25° C., 60 min at 46° C., and 2 min at 95° C. For skip analysis, SapphireAmp™ Fast PCR Master Mix (TakaraBio) was used according to the manufacturer's instructions. To this end, 9.7 μl RNAse free water, 12.5 μl of 2× Master Mix, 0.4 μl of 10 μM FW primer 5′-[…]-3′ (SEQ ID NO: 14) and 0.4 μl of […] RV primer 5′-[…]-3′ (SEQ ID NO: 15) were added to a PCR tube, mixed, after which 2 μl cDNA (50 ng) was added, to yield a total volume of 25 μl. These samples were subjected to a PCR run of 1 min at 94° C., 35 cycles of 5 sec at 98° C., 5 sec at 55° C., 5 sec at 72° C., followed by 1 min at 72° C. Samples were mixed with 2 μl 6× loading buffer, then 16 μl were loaded onto an 2% agarose gel and ran for 60-90 min at 80 V. Gels were imaged and band intensities were quantified with a ChemiDoc™ XRS+System and Image Lab™ Software (BioRad). The expected non-skipped product has a size of 788 bp, and the skip product of 575 bp, respectively.
# Murine myoblast cell line C2C12 was maintained in 10% FBS DMEM medium+Pen/Strep and plated at 240,000 cells per well (cpw) in 24-well plates, or at 40,000 cpw in 96-well plates (wp), in maintenance medium (10% FBS in DMEM medium+Pen/Strep) and incubated at 37° C. with 5% CO2. Twenty-four hours after seeding, cells were switched to differentiation media (2% horse serum in DMEM) and incubated for 3 days before refreshing the medium. After another 24 hours, medium was refreshed again and compounds were added and incubated for 48 hours. At 48 hours total post treatment, cells in the 24-wp were harvested for exon skip analysis and the cell viability was assessed on the 96-wp.
# Performed as described above in the Methods (as performed in Examples 1-5).
substance,measurement,setting,value
DMD-ASO: 2′O-methyl-phosporothioate antisense oligonucleotide 5′-UCAAGGAAGAUGGCAUUUCU-3′ [SEQ ID NO: 1]; exon 51 skipping; same sequence and chemistry as drisapersen (antisense mU*mC*mA*mA*mG*mG*mA*mA*mG*mA*mU*mG*mG*mC*mA*mU*mU*mU*mC*mU; further chemistry not fully specified),improvement in potency with vs without SO1861-EMCH or SO1861-SC-Mal co-administration,[1],one to two orders of magnitude lower
same,% exon skipping,"[1]; 0.08 μM DMD oligo alone, Lab-on-a-chip",0%
same,% exon skipping,"[1]; 0.31 μM DMD oligo alone, Lab-on-a-chip",0%
same,% exon skipping,"[1]; 1.25 μM DMD oligo alone, Lab-on-a-chip",0%
same,% exon skipping,"[1]; 5 μM DMD oligo alone, Lab-on-a-chip",1%
DMD-PMO: PMO 5′-CTCCAACATCAAGGAAGATGGCATTTCTAG-3′ [SEQ ID NO: 2]; exon 51 skipping; same sequence but not 5′-modifications as eteplirsen (all phosphorodiamidate morpholino (PMO)),improvement in potency with vs without SO1861-EMCH or SO1861-SC-Mal co-administration,[1],one to two orders of magnitude lower
same,% exon skipping,"[1]; 0.08 μM DMD oligo alone, Femto",0%
same,% exon skipping,"[1]; 0.31 μM DMD oligo alone, Femto",0%
same,% exon skipping,"[1]; 1.25 μM DMD oligo alone, Femto",0%
same,% exon skipping,"[1]; 5 μM DMD oligo alone, Femto",0%
same,% exon skipping,"[1]; 20 μM DMD oligo alone, Femto",4%
IGF-1-SO1861+500 nM M23D: IGF-1-SO1861 (DAR2.7) co-administered with 500 nM M23D,exon 23 skip,[2]; 133 nM IGF-1-SO1861 + 500 nM M23D,8%
same,exon 23 skip,[2]; 667 nM IGF-1-SO1861 + 500 nM M23D,11%
same,exon 23 skip,[2]; 3333 nM IGF-1-SO1861 + 500 nM M23D,19%
M23D: PMO 5′-GGCCAAACCTCGGCTTACCTGAAAT-3′ [SEQ ID NO: 3] that induces exon 23 skipping of mouse dystrophin (all phosphorodiamidate morpholino (PMO)),exon 23 skip,[2]; 500 nM M23D alone (0 nM conjugate),5%
same,exon 23 skip activity,"[2]; 500 nM M23D alone, 48 h",no exon skip activity
